Measurements taken from US20050011012A1, “Multifunctional antimicrobial dyes” (Regents of the University of California, priority 2003, published 2005).
Where two headings read alike, the source gives them in different places.

What was measured:
Staphylococcus aureus = details: Orlon treated with 1 mMol/L compound, pH 3, 10^5~10^6 CFU/mL, contact time 6 hrs
Procedure: (§1) The dyeing of acrylic fabrics follows a traditional exhaustion dyeing procedure (Munn, The dyeing of synthetic-polymer and acetate fibres, England: Dyers Company Publications Trust (1979)). Dye solutions were prepared with the QAS-dyes of the present invention, sodium sulfate (2 g/L), and Triton X-100 (0.05%). The pH of the dyeing bath was adjusted to 3 by buffer solutions containing sulfuric acid, sodium acetate, and acetic acid. The bath ratio was kept at 1:50. The Orlon fabrics were immersed into the dyeing bath at initial dyeing temperatures for a certain period of time, and then fixed at 100° C. for another period of time to elevate the interactions between the fabrics and the QAS-dyes.
(§2) The antimicrobial activities of the treated Orlon fabrics were evaluated against Escherichia coli (E. coli, Gram-negative) and Staphylococcus aureus (S. aureus, Gram-positive) according to AATCC test method 100-1999. In this method, disposable petri dishes containing fabric swatches weighing about 1 g were challenged with 1.0±0.1 mL of bacteria inoculum. After a certain period of contact time, the challenged fabric swatches were transferred to 250 mL containers with 100 mL of sterilized water, and the resultant supernatant was diluted 10^1, 10^2, 10^3, and 10^4 times. Then, 100 μL of each dilution was placed onto nutrient agar and incubated at 37° C. for 18 hours. The same procedure was applied to an untreated Orlon fabric swatch as a control. Finally, viable bacteria colonies on the agar plate were counted, and the amount of bacterial reduction was calculated using Eq. (2): Reduction percentage(%)=(A-B)/A×100%, (2) where A represents the number of bacterial colonies in the control, and B represents the number of bacterial colonies in the treated Orlon fabrics.
(§3) The surface resistivity of the treated fabrics was measured by a portable surface resistivity/resistance meter purchase from Monroe Electronics, Inc (Model 272A). The visual color yields of the dyed fabrics were measured by GretagMacbeth™ Color-Eye® 7000A spectrophotometer. The visual color yields of the fabrics were expressed by K/S values, which were derived from the reflectance measurement. The treated fabric was washed in a Launder-Ometer® according to AATCC Test Method 61-2001 to evaluate the wash durability of the treated fabrics. In this method, one cycle of a Launder-Ometer wash is equivalent to five machine washes using a home laundry machine.

Escherichia coli = details: pH 3; for Antimicrobial efficacy of treated fabric, E. coli: Orlon treated with 1 mMol/L compound, 10^5~10^6 CFU/mL; for Reduction percentage of E. coli: Orlon treated with 1 mMol/L dye
Procedure: as §1, §2, §3

[1] = for Relative hydrolytic stability among mono-QAS substituted dyes: acidic conditions, 100° C.
Procedure: Hydrolytic stability analysis: The dyes were dissolved in aqueous solutions at a concentration of 0.4-1 mMol/L, and the solutions were adjusted to various pH values by using sulfuric acid, acetic acid, sodium acetate, sodium bicarbonate, and/or sodium carbonate. The solutions were heated to the required temperatures. At different time intervals, solution samples were taken and measured by a HITACHI U-2000 spectrophotometer to obtain the UV-vis adsorption spectra. The results were compared with the spectra of original dye solutions to determine the stability of the dyes.
After hydrolysis, the precipitates formed in the dye solutions were filtered and thoroughly washed with deionized water. The resultant precipitates were recrystallized using acetone for NMR analysis. NMR spectra were recorded on a Varian Inova 400 spectrometer. The residual filtrate was extracted by chloroform, and the aqueous part was dried under vacuum at room temperature and analyzed by NMR.

[2] = DSC, 10° C./min, nitrogen
Procedure: Thermal stability analysis: Thermal analyses of the QAS-dyes shown in FIG. 2B were performed using a differential scanning calorimeter (DSC) (Shimadzu DSC-50) and a thermal gravimetric analyzer (TGA) (Shimadzu TGA-50). The dye samples were heated at 10° C./min. and nitrogen gas was chosen as the atmosphere.

SMILES: CCCC[N+](C)(C)CC(=O)Nc1ccc(NC(=O)C[N+](C)(C)CCCC)c2c1C(=O)c1ccccc1C2=O.[Cl-].[Cl-] [bi-4]
- Antimicrobial efficacy of treated fabric, S. aureus (Staphylococcus aureus; 0 washes): 87.5%
- Antimicrobial efficacy of treated fabric, S. aureus (Staphylococcus aureus; 5 washes): 36.4%
- Antimicrobial efficacy of treated fabric, S. aureus (Staphylococcus aureus; 10 washes): 0%
- Antimicrobial efficacy of treated fabric, S. aureus (Staphylococcus aureus; 20 washes): 0%
- Antimicrobial efficacy of treated fabric, E. coli (Escherichia coli; 0 washes, contact time 6 hrs): 97.1%
- Antimicrobial efficacy of treated fabric, E. coli (Escherichia coli; 5 washes, contact time 6 hrs): 37.5%
- Antimicrobial efficacy of treated fabric, E. coli (Escherichia coli; 10 washes, contact time 6 hrs): 0%
- Antimicrobial efficacy of treated fabric, E. coli (Escherichia coli; 20 washes, contact time 6 hrs): 0%

SMILES: CCCCCCCC[N+](C)(C)CC(=O)Nc1ccc(NC(=O)C[N+](C)(C)CCCCCCCC)c2c1C(=O)c1ccccc1C2=O.[Cl-].[Cl-] [bi-8]
- Antimicrobial efficacy of treated fabric, S. aureus (Staphylococcus aureus; 0 washes): 93.9%
- Antimicrobial efficacy of treated fabric, S. aureus (Staphylococcus aureus; 5 washes): 50.0%
- Antimicrobial efficacy of treated fabric, S. aureus (Staphylococcus aureus; 10 washes): 37.5%
- Antimicrobial efficacy of treated fabric, S. aureus (Staphylococcus aureus; 20 washes): 0%
- Antimicrobial efficacy of treated fabric, E. coli (Escherichia coli; 0 washes, contact time 6 hrs): 98.6%
- Antimicrobial efficacy of treated fabric, E. coli (Escherichia coli; 5 washes, contact time 6 hrs): 50.0%
- Antimicrobial efficacy of treated fabric, E. coli (Escherichia coli; 10 washes, contact time 6 hrs): 46.7%
- Antimicrobial efficacy of treated fabric, E. coli (Escherichia coli; 20 washes, contact time 6 hrs): 0%

SMILES: CCCCCCCCCCCC[N+](C)(C)CC(=O)Nc1ccc(NC(=O)C[N+](C)(C)CCCCCCCCCCCC)c2c1C(=O)c1ccccc1C2=O.[Cl-].[Cl-] [bi-12]
- Antimicrobial efficacy of treated fabric, S. aureus (Staphylococcus aureus; 0 washes): 99.9%
- Antimicrobial efficacy of treated fabric, S. aureus (Staphylococcus aureus; 5 washes): 81.8%
- Antimicrobial efficacy of treated fabric, S. aureus (Staphylococcus aureus; 10 washes): 45.5%
- Antimicrobial efficacy of treated fabric, S. aureus (Staphylococcus aureus; 20 washes): 0%
- Antimicrobial efficacy of treated fabric, E. coli (Escherichia coli; 0 washes, contact time 6 hrs): 99.9%
- Antimicrobial efficacy of treated fabric, E. coli (Escherichia coli; 5 washes, contact time 6 hrs): 99.3%
- Antimicrobial efficacy of treated fabric, E. coli (Escherichia coli; 10 washes, contact time 6 hrs): 60.0%
- Antimicrobial efficacy of treated fabric, E. coli (Escherichia coli; 20 washes, contact time 6 hrs): 0%
- Reduction percentage of E. coli (Escherichia coli; E. coli 10^5~10^6 CFU/mL, contact time 3 hrs): 93.3%
- Reduction percentage of E. coli (Escherichia coli; E. coli 10^5~10^6 CFU/mL, contact time 6 hrs): 99.9%
- Reduction percentage of E. coli (Escherichia coli; E. coli 10^5~10^6 CFU/mL, contact time 9 hrs): 93.3%
- Reduction percentage of E. coli (Escherichia coli; E. coli 10^5~10^6 CFU/mL, contact time 12 hrs): 66.7%
- Reduction percentage of E. coli (Escherichia coli; E. coli 10^6~10^7 CFU/mL, contact time 3 hrs): 92.5%
- Reduction percentage of E. coli (Escherichia coli; E. coli 10^6~10^7 CFU/mL, contact time 6 hrs): 95.8%
- Reduction percentage of E. coli (Escherichia coli; E. coli 10^6~10^7 CFU/mL, contact time 9 hrs): 83.3%
- Reduction percentage of E. coli (Escherichia coli; E. coli 10^6~10^7 CFU/mL, contact time 12 hrs): 50%
- Reduction percentage of E. coli (Escherichia coli; E. coli 10^7~10^8 CFU/mL, contact time 3 hrs): 86.7%
- Reduction percentage of E. coli (Escherichia coli; E. coli 10^7~10^8 CFU/mL, contact time 6 hrs): 0%
- Reduction percentage of E. coli (Escherichia coli; E. coli 10^7~10^8 CFU/mL, contact time 9 hrs): 0%
- Reduction percentage of E. coli (Escherichia coli; E. coli 10^7~10^8 CFU/mL, contact time 12 hrs): 0%

SMILES: CCCC[N+](C)(C)CC(=O)Nc1cccc2c1C(=O)c1ccccc1C2=O.[Cl-] [m-4]
- Antimicrobial efficacy of treated fabric, S. aureus (Staphylococcus aureus; 0 washes): 86.4%
- Antimicrobial efficacy of treated fabric, S. aureus (Staphylococcus aureus; 5 washes): 50.0%
- Antimicrobial efficacy of treated fabric, S. aureus (Staphylococcus aureus; 10 washes): 0%
- Antimicrobial efficacy of treated fabric, S. aureus (Staphylococcus aureus; 20 washes): 0%
- Antimicrobial efficacy of treated fabric, E. coli (Escherichia coli; 0 washes, contact time 6 hrs): 95.7%
- Antimicrobial efficacy of treated fabric, E. coli (Escherichia coli; 5 washes, contact time 6 hrs): 44.0%
- Antimicrobial efficacy of treated fabric, E. coli (Escherichia coli; 10 washes, contact time 6 hrs): 0%
- Antimicrobial efficacy of treated fabric, E. coli (Escherichia coli; 20 washes, contact time 6 hrs): 0%
- Time the dye solution was stable (almost unchanged visible spectra) ([1]; 0.4 mMol/L, pH 5, 100° C.): about six
- Temperature up to which no obvious changes are observed (dyes stable below) [2]: up to 190 °C

SMILES: CCCCCCCC[N+](C)(C)CC(=O)Nc1cccc2c1C(=O)c1ccccc1C2=O.[Cl-] [m-8]
- Antimicrobial efficacy of treated fabric, S. aureus (Staphylococcus aureus; 0 washes): 92.4%
- Antimicrobial efficacy of treated fabric, S. aureus (Staphylococcus aureus; 5 washes): 37.5%
- Antimicrobial efficacy of treated fabric, S. aureus (Staphylococcus aureus; 10 washes): 0%
- Antimicrobial efficacy of treated fabric, S. aureus (Staphylococcus aureus; 20 washes): 0%
- Antimicrobial efficacy of treated fabric, E. coli (Escherichia coli; 0 washes, contact time 6 hrs): 98.6%
- Antimicrobial efficacy of treated fabric, E. coli (Escherichia coli; 5 washes, contact time 6 hrs): 44.0%
- Antimicrobial efficacy of treated fabric, E. coli (Escherichia coli; 10 washes, contact time 6 hrs): 0%
- Antimicrobial efficacy of treated fabric, E. coli (Escherichia coli; 20 washes, contact time 6 hrs): 0%
- Relative hydrolytic stability among mono-QAS substituted dyes [1]: lower stability
- Temperature up to which no obvious changes are observed (dyes stable below) [2]: up to 190 °C

SMILES: CCCCCCCCCCCC[N+](C)(C)CC(=O)Nc1cccc2c1C(=O)c1ccccc1C2=O.[Cl-] [m-12]
- Antimicrobial efficacy of treated fabric, S. aureus (Staphylococcus aureus; 0 washes): 99.9%
- Antimicrobial efficacy of treated fabric, S. aureus (Staphylococcus aureus; 5 washes): 75.0%
- Antimicrobial efficacy of treated fabric, S. aureus (Staphylococcus aureus; 10 washes): 0%
- Antimicrobial efficacy of treated fabric, S. aureus (Staphylococcus aureus; 20 washes): 0%
- Antimicrobial efficacy of treated fabric, E. coli (Escherichia coli; 0 washes, contact time 6 hrs): 99.9%
- Antimicrobial efficacy of treated fabric, E. coli (Escherichia coli; 5 washes, contact time 6 hrs): 81.3%
- Antimicrobial efficacy of treated fabric, E. coli (Escherichia coli; 10 washes, contact time 6 hrs): 0%
- Antimicrobial efficacy of treated fabric, E. coli (Escherichia coli; 20 washes, contact time 6 hrs): 0%
- Relative hydrolytic stability among mono-QAS substituted dyes [1]: lowest stability
- Temperature up to which no obvious changes are observed (dyes stable below) [2]: up to 190 °C
